Our source for the IC50, Activity and inhibition values is ChEMBL document CHEMBL1158861, “Zanhasaponins A and B, antiphospholipase A2 saponins from an antiinflammatory extract of Zanha africana root bark” (J Nat Prod, 1997).

Assay [1] has as its target Acidic phospholipase A2 2 (Naja naja, UniProt P15445). In words: Inhibition of Naja Naja PLA2.
The species entered for assay [2] is Mus musculus. In words: Effect on oxazolone-induced delayed type hypersensitivity in Swiss mouse assessed as reduction in ear thickness at 0.05 mg/ear after 102 hrs. Details: scale not given: the % may be the effect or the level left. The assay is classed as functional.
Assay [3] concerns Mus musculus. In words: Antiinflammatory activity against TPA-induced ear edema in Swiss mouse assessed as reduction in ear thickness at 0.05 mg/ear after 10 days. The assay is classed as functional. Details: scale not given: the % may be the effect or the level left.
The species entered for assay [4] is Mus musculus. The assay can be described thus: Effect on oxazolone-induced delayed type hypersensitivity in Swiss mouse assessed as reduction in ear thickness at 0.05 mg/ear after 24 hrs. The assay is classed as functional. The arrangement: scale not given: the % may be the effect or the level left.
Assay [5] is filed under the species Mus musculus. In words: Effect on oxazolone-induced delayed type hypersensitivity in Swiss mouse assessed as reduction in ear thickness at 0.05 mg/ear after 48 hrs. Type of assay: functional. Details: scale not given: the % may be the effect or the level left.
Assay [6] is filed under the species Mus musculus. The assay can be described thus: Effect on oxazolone-induced delayed type hypersensitivity in Swiss mouse assessed as reduction in ear thickness at 0.05 mg/ear after 96 hrs. The assay is classed as functional. The arrangement: scale not given: the % may be the effect or the level left.
For assay [7], the species on record is Mus musculus. The assay can be described thus: Effect on oxazolone-induced delayed type hypersensitivity in Swiss mouse assessed as reduction in ear thickness at 0.05 mg/ear after 72 hrs. Type of assay: functional. The arrangement: scale not given: the % may be the effect or the level left.
For assay [8], the target named is Acidic phospholipase A2 2 (Naja naja) (UniProt P15445). The following applies: 1.3 nM.
Chain of Acidic phospholipase A2 2 (Naja naja) (P15445 whole entry): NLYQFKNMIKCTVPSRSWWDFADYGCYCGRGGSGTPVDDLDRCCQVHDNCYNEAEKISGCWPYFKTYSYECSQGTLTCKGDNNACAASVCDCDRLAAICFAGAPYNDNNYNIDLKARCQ
Description: Inhibition of Naja Naja PLA2 at 1.3 nM
Assay [9] concerns Mus musculus. The assay can be described thus: Antiinflammatory activity against Arachidonic acid-induced ear edema in Swiss mouse assessed as reduction in ear thickness at 2 mg/ear. Type of assay: functional. Details: scale not given: the % may be the effect or the level left.
The target of assay [10] is Acidic phospholipase A2 2 (Naja naja) (UniProt P15445). In words: Inhibition of Naja Naja PLA2 at […].

pIC50: −log10 of the molar value.

Chain of Acidic phospholipase A2 2 (P15445 whole entry): as above

The pIC50 is the negative decadic logarithm of the IC50, by convention in mol/L. Take `C[C@@H]1O[C@@H](O[C@H]2[C@H](OC(=O)[C@]34CCC(C)(C)C[C@H]3C3=CC[C@@H]5[C@@]6(C)C[C@H](O)[C@H](O[C@@H]7O[C@H](C(=O)O)[C@@H](O)[C@H](O)[C@H]7O)[C@@](C)(C(=O)O)[C@@H]6CC[C@@]5(C)[C@]3(C)C[C@H]4O)O[C@@H](C)[C@H](O)[C@H]2O)[C@H](O)[C@H](O)[C@H]1O` [ZANHASAPONIN A]: in assay [1], the pIC50 is 3.33.
Regarding `C[C@@H]1C[C@H]2[C@@H]3CCC4=CC(=O)C=C[C@]4(C)[C@@]3(F)[C@@H](O)C[C@]2(C)[C@@]1(O)C(=O)CO` [DEXAMETHASONE], the Activity in assay [2] was 84%; in [3] it was 81%; in assay [4], 76%; in assay [5], 89%; in [6], 81%; in [7] it was 93%.
Turning to `CO[C@H]1[C@H](O)[C@@H](O)[C@@H](O)[C@H](O)[C@@H]1O` [METHYLINOSITOL], the pIC50 in assay [1] was 2.72.
For orientation: inhibition means the percentage by which the read-out fell short of the control. The molecule `CO[C@H]1[C@H](O)[C@@H](O)[C@H](O)[C@H](O)[C@H]1O` registered an inhibition in assay [8] of 45%.
For the molecule `CC(Cc1ccc(O)c(O)c1)C(C)Cc1ccc(O)c(O)c1` (configuration not stated) [NORDIHYDROGUAIARETIC ACID], the Activity in assay [9] came to 50%.
For `C[C@@H]1O[C@@H](O[C@H]2[C@H](OC(=O)[C@]34CCC(C)(C)C[C@H]3C3=CC[C@@H]5[C@@]6(C)C[C@H](O)[C@H](O[C@@H]7O[C@H](C(=O)O)[C@@H](O)[C@H](O)[C@H]7O)[C@@](C)(C(=O)O)[C@@H]6CC[C@@]5(C)[C@]3(C)C[C@H]4O)O[C@@H](C)[C@H](O)[C@H]2O)[C@H](O[C@@H]2OC[C@@H](O)[C@H](O[C@@H]3OC[C@@H](O)[C@H](O)[C@H]3O)[C@H]2O)[C@H](O)[C@H]1O`, the inhibition in [10] is 30%.
`C[C@@H]1O[C@@H](O[C@H]2[C@H](OC(=O)[C@]34CCC(C)(C)C[C@H]3C3=CC[C@@H]5[C@@]6(C)C[C@H](O)[C@H](O[C@@H]7O[C@H](C(=O)O)[C@@H](O)[C@H](O)[C@H]7O)[C@@](C)(C(=O)O)[C@@H]6CC[C@@]5(C)[C@]3(C)C[C@H]4O)O[C@@H](C)[C@H](O)[C@H]2O)[C@H](O[C@@H]2OC[C@@H](O)[C@H](O)[C@H]2O)[C@H](O)[C@H]1O` [ZANHASAPONIN B] gave a pIC50 in [1] of 3.36.
